Consider 1 compound from patent US10274483B2, “Fluorescence method for sensing chlorinated disaccharides” (THE REGENTS OF THE UNIVERSITY OF CALIFORNIA, priority 2014, dated 2019).

Common to all, as to type: binding
The nature of test [1]: oBBV-HPTS two component fluorescence assay, sucrose. The procedure: (§1) Urine has been analyzed for the permeability markers sucrose (stomach), lactulose and mannitol (small intestine) and sucralose (colon). The viologen oBBV was used with the fluorophore HPTS (Exc. 420 or 485 nm, Em 535 nm). Fluorescence was measured with a benchtop plate reader. HPTS is normally read at 420/535 nm, but performs well at 485/535 nm, matching FITC filter sets normally found in clinical labs. […] Lower limit of quantification (LLOQ) and dynamic range are suitable for typical urine samples.
(§2) Developing a degradation pathway of sucralose into a saccharide that consists of the hydroxyl groups is needed for boronic acid recognition, which allows for the molecular recognition of sucralose. Sucralose contains halogenated carbons, which are easily modified via a hydroxyl anion or radical to de-chlorinate sucralose to form a detectable saccharide. Based on literature precedence, sucralose is modified through advanced oxidation photolysis to generate a fructose sugar alcohol derivative of sucrose (Ref 38). […] This has been accomplished by generating hydroxyl anion and radicals via the Fenton chemical reaction (Ref 39) in the presence of sucralose, and upon reaction completion, the modified sucralose solution was tested against the oBBV-HPTS system. Using the disclosed two component system, it is confirmed that sucralose is modified.

The nature of test [2]: oBBV-HPTS two component fluorescence assay, sucralose. The procedure:
as §1, §2

Test [3] in a line: oBBV-HPTS two component fluorescence assay, mannitol.
From the text: (§3) Boronic acids form covalent bonds with the cis-1, 2-hydroxyl groups that are commonly found in saccharides. Based on this property, a two-component sensing system is developed, comprising a fluorescent dye that serves as the indicator unit and a boronic acid-appended viologen that serves a dual function as fluorescence quencher and saccharide receptor. Dye and viologen form a non-fluorescent ground state complex. Binding to a diol weakens the complex. Subsequent dissociation from the fluorescent dye results in an increase in fluorescence dependent on diol concentration.
as §1

Test [4] can be described thus: oBBV-HPTS two component fluorescence assay, Fenton-modified sucralose. Conditions: sucralose after Fenton reaction, 1 hr; sodium phosphate and HEPES buffer, 0.01% Triton-X100, pH 7.4 (FIG. 4). As for the experimental part:
FIG. 4 is a graph showing the results of a proof of concept experiment to measure modified sucralose after 1 hr of reaction time. This study was performed with ortho bis boronic acid viologen (oBBV) in sodium phosphate and HEPES buffer 0.1M containing 0.01% Triton-X100, pH 7.4. The fluorescence intensity is the normalized intensity where F=fluorescence intensity after saccharide addition and Fo=fluorescence intensity of the quenched reporter dye.
Developing a degradation pathway of sucralose into a saccharide that consists of the hydroxyl groups is needed for boronic acid recognition, which allows for the molecular recognition of sucralose. […]
This has been accomplished by generating hydroxyl anion and radicals via the Fenton chemical reaction (Ref 39) in the presence of sucralose, and upon reaction completion, the modified sucralose solution was tested against the oBBV-HPTS system. Using our two component system, we have confirmed that sucralose can be modified and measured by adding increasing amounts of this modified saccharide, a significant fluorescence signal was obtained.
A solution of sucralose (20 mM) in the presence of ferrous iron (II) sulfate and hydrogen peroxide was allowed to stir for 1 hour and dilutions were made to determine if a fluorescence signal can be obtained. […]

The nature of test [5]: oBBV-HPTS two component fluorescence assay, lactulose.
From the text: as §3, §1

[6] abbreviates: fluorophore HPTS, urine, Exc. 420 or 485 nm, Em 535 nm (FIG. 3).

Regarding `OB(O)c1ccccc1C[n+]1ccc(-c2cc[n+](Cc3ccccc3B(O)O)cc2)cc1.[Br-].[Br-]` [oBBV, 4,4′-N,N′-bis-(benzyl-2-boronic acid)-dipyridinium dibromide], the “fluorescence signal with sucrose” value in test [1] (tested in parallel with modified sucralose (FIG. 4)) was “no obtainable signal”. For the same compound, in test [1] (urine (FIG. 3)), the “de-quenching of HPTS fluorescence in the presence of sucrose” value is “not”. In addition, in test [2] (unmodified, tested in parallel with modified sucralose (FIG. 4)), the “fluorescence signal with sucralose” value is recorded as “no obtainable signal”. The “de-quenching of HPTS fluorescence in the presence of sucralose” value in test [2] (urine (FIG. 3)) is “not”. The sensitivity to mannitol entry in test [3] (setting [6]) is on record as “good sensitivity”. The “de-quenching of HPTS fluorescence in the presence of mannitol” value in test [3] (urine (FIG. 3)) is “selectively de-quenched”. Moreover, in test [4], the “fluorescence signal on adding increasing amounts of modified sucralose” value is given as “increase in fluorescence signal”. Also, the sensitivity to lactulose result in test [5] (setting [6]) is recorded as “greatest preferential sensitivity”. Also, in test [5] (urine (FIG. 3)), the “de-quenching of HPTS fluorescence in the presence of lactulose” value is given as “selectively de-quenched”.
